Several values for one entry are separate records, joined by “and”; a condition that tells them apart may be missing. Equal entries are not always repeated.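 96-well plates; 48 h exposure; 5 concentrations. Endpoints by linear interpolation between flanking doses. Not reached: highest tested concentration assigned. GI50 is the concentration that inhibits growth by half. TGI is the concentration that stops growth completely.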
Assays:
Assay in all cases: NCI-60 cell line screen, 48 h
SK-OV-3 ovarian = tested on: SK-OV-3 ovarian
TK-10 renal = tested on: TK-10 renal
BT-549 breast = tested on: BT-549 breast
HT29 colon = tested on: HT29 colon
HOP-62 NSCLC = tested on: HOP-62 NSCLC
OVCAR-5 ovarian = tested on: OVCAR-5 ovarian
HCT-15 colon = tested on: HCT-15 colon
A498 renal = tested on: A498 renal
MALME-3M melanoma = tested on: MALME-3M melanoma
NCI-H460 lung = tested on: NCI-H460 lung

| Compound | TGI (SK-OV-3 ovarian) | TGI (TK-10 renal) | TGI (BT-549 breast) [µM] | TGI (HT29 colon) [µM] | TGI (HOP-62 NSCLC) | TGI (OVCAR-5 ovarian) [µM] | TGI (HCT-15 colon) | TGI (A498 renal) | TGI (MALME-3M melanoma) [µM] | TGI (NCI-H460 lung) | GI50 (SK-OV-3 ovarian) [µM] | GI50 (TK-10 renal) [nM] | GI50 (BT-549 breast) [nM] | GI50 (HT29 colon) [nM] | GI50 (HOP-62 NSCLC) [nM] | GI50 (OVCAR-5 ovarian) [nM] | GI50 (HCT-15 colon) | GI50 (A498 renal) [nM] | GI50 (MALME-3M melanoma) [nM] | GI50 (NCI-H460 lung) [nM] |
| --- | --- | --- | --- | --- | --- | --- | --- | --- | --- | --- | --- | --- | --- | --- | --- | --- | --- | --- | --- | --- |
| COC1(OC)C2(Cl)C(Cl)=C(Cl)C1(Cl)C1c3ccc(C(C)=O)c4cccc(c34)C12 (stereo not given) | > 100 µM | > 100 µM | > 100 | > 100 | > 100 µM | > 100 | > 100 µM | 32.1 µM | 58 | > 80.5 µM | – | – | – | – | – | – | – | – | – | – |
| CC/C=C\C[C@H](O)C/C=C1/C(=O)C=C[C@@H]1C/C=C\CCCC(=O)OC(C)C | 16.1 µM | 9.31 µM | 3.51 | 3.21 | 6.01 µM | 8.41 | 2.75 µM | 8.12 µM | 3.75 | 3.97 µM | 5.01 | 3540 | 1250 | 1650 | 2450 | 3070 | 674 nM | 3000 | 1640 | 1680 |
| C=C(C)[C@@H]1CC[C@]2(COCCCNCCCN)CC[C@]3(C)[C@H](CC[C@@H]4[C@@]5(C)CC[C@H](OCCCN)C(C)(C)[C@@H]5CC[C@]43C)[C@@H]12 | 4.28 µM | 1.94 µM | 14.2 | 1.53 | 1.62 µM | 1.67 | 1.59 µM | 14.4 µM | 1.53 | 1.75 µM | 1.39 | 952 | 6860 | 813 | 831 | 918 | 860 nM | 7220 | 801 | 940 |
| O=C1/C(=C/c2ccc(F)c(F)c2)CN(C(=O)C(Cl)Cl)C/C1=C\c1ccc(F)c(F)c1 | 1.78 µM | 0.84 µM | 0.34 | – | 0.745 µM | 0.421 | 0.164 µM | 0.55 µM | 0.539 | 0.444 µM | 0.492 | 258 | 83.7 | 35.9 | 239 | 167 | 30.3 nM | 183 | 199 | 134 |
| COC(NC(N)=O)C(=O)O (stereo not given) | > 100 µM | > 100 µM | > 100 | > 100 | > 100 µM | > 100 | > 100 µM | > 100 µM | > 100 | > 100 µM | – | – | – | – | – | – | – | – | – | – |
| CN(C)C[C@H]1CCn2c(c(C3=C(c4cn(C)c5ccccc45)C(=O)NC3=O)c3ccccc32)C1 | 11.5 µM | 8.77 µM | 9.53 | 11.5 | 8.58 µM | 17 | 14.8 µM | 9.08 µM | 8.56 | 9.55 µM | 5.17 | 3610 | 4830 | 3450 | 4570 | 5350 | 4510 nM | 3840 | 4240 | 4860 |
| C=C1C(=O)O[C@H]2[C@H]1CC/C(Cn1cc(Cc3c[nH]c4ccccc34)nn1)=C\CC[C@@]1(C)O[C@@H]21 | 27.4 µM | 3.4 µM | 2.76 | 3.72 | 14.9 µM | 3.48 | 3.35 µM | 14.3 µM | 3.07 | 10.6 µM | 14.2 | 1820 | 1410 | 1950 | 3860 | 1800 | 1590 nM | 3900 | 1630 | 3510 |
| O=C(O)C(Br)C(Br)C(=O)O (stereo not given) | > 100 µM | > 100 µM | > 100 | > 100 | > 100 µM | > 100 | > 100 µM | > 100 µM | > 100 | > 100 µM | – | – | – | – | – | – | – | – | – | – |
| CCCCC[C@H]1CC=C2C(=O)C=C[C@@H]2CC=CCCCC(=O)O[C@@H](CCCCC)CC=C2C(=O)C=C[C@@H]2CC=CCCCC(=O)O[C@@H](CCCCC)CC=C2C(=O)C=C[C@@H]2CC=CCCCC(=O)O1 | > 8.75 µM | 3.53 µM | 0.772 | 1.21 | 0.775 µM | > 8.75 | 5.73 µM | 2.41 µM | > 8.75 | 2.87 µM | 1.62 | 478 | 241 | 313 | 259 | 1080 | 718 nM | 750 | 295 | 488 |
| CCN(CC)CCC(=O)OC1C(C)=CC(C)C(=O)CC(C(C)CC2CCC(O)C(OC)C2)OC(=O)C2CCCCN2C(=O)C(=O)[C@@]2(O)OC(CCC2C)CC(OC)\C(C)=C/C=C/C=C/C(C)CC(C)C(=O)C1OC (stereo not given in full) | 19.4 µM | 23.2 µM | 15.5 | 19.9 | 21.1 µM | 25.6 | 20.6 µM | 17.6 µM | 18.8 | 23.8 µM | – | – | – | – | – | – | – | – | – | – |
| O=C(O)C1CCN(Cc2oc(CO)cc(=O)c2O)C1 (stereo not given) | > 100 µM | > 100 µM | > 100 | > 100 | > 100 µM | > 100 | > 100 µM | > 100 µM | > 100 | > 100 µM | – | – | – | – | – | – | – | – | – | – |
| COc1cc2c3c(n(CCCCNC(=O)OC(C)(C)C)c(=O)c2cc1OC)-c1cc2c(cc1C3=O)OCO2 | > 100 µM | > 100 µM | > 100 | > 100 | > 100 µM | > 100 | > 100 µM | > 100 µM | > 100 | > 100 µM | > 100 | > 100000 | > 100000 | > 100000 | 28100 | > 100000 | > 100000 nM | > 100000 | > 100000 | 5660 |
| C[C@]12CC[C@@H]3c4ccc(O)cc4CC[C@H]3[C@@H]1CC[C@@H]2NS(=O)(=O)c1cccc(Cl)c1 | 12.6 µM | 11.2 µM | 5.25 | 6.06 | 15.3 µM | 8.54 | 7.2 µM | 5.19 µM | 6.75 | 5.02 µM | 3.79 | 3460 | 2150 | 2470 | 4460 | 2590 | 2280 nM | 1560 | 2360 | 2240 |
| CC(=O)O[C@@]12CO[C@@H]1C[C@H](O)[C@@]1(C)C(=O)[C@H](O)C3=C(C)[C@@H](OC(=O)[C@H](O)[C@@H](NC(=O)OC(C)(C)C)c4ccccc4)C[C@@](O)([C@@H](OC(=O)c4ccccc4)C12)C3(C)C (stereo not given in full) | 50 µM and 72.6 µM | 12.1 µM and > 100 µM | 0.0338 | 41.7 | 50 µM and > 100 µM | 89.2 | 50 µM and > 100 µM | 37 µM and 73.1 µM | 29.6 | 20.1 µM and > 100 µM | < 0.005 | – | – | < 5 | < 5 | – | 44.1 nM and 327 nM | – | 11300 | < 5 |
| COc1ccc(-c2nsc3c2NC(=O)CC3c2ccc3c(c2)OCCO3)cc1 (stereo not given) | 8.46 µM | > 100 µM | > 100 | > 55.5 | > 100 µM | > 100 | > 100 µM | 1.03 µM | > 100 | > 46 µM | 0.476 | 1870 | 674 | 419 | 585 | 10200 | 504 nM | 212 | 336 | 396 |
| Oc1[nH]c(N=C2N=c3ccccc3=N2)c2ccccc12 | 27.7 µM | 55.4 µM | 54.5 | 39.7 | 22.9 µM | 68.1 | > 100 µM | 19.9 µM | 37.6 | 21 µM | 12.1 | 21000 | 16700 | 9180 | 10100 | 20400 | 3540 nM | 6310 | 9690 | 3010 |
| CCn1c(-c2c(Cl)cc(O)cc2Cl)cc2c(Cl)cc(O)cc21 | 37.1 µM | 59.2 µM | 15.5 | 6.82 | 31.5 µM | 65 | 12.8 µM | 30.1 µM | 39.3 | 18.4 µM | – | – | – | – | – | – | – | – | – | – |
